The values that follow come from patent US20080318783A1, “Use of abscisic acid seed treatment to enhance corn emergence after early planting” (priority 2007, published 2008).

Holding throughout (format): in vivo, Zea mays
One assay deals with Corn seed (Hughes 5813). Nature of the assay: Seed treatment with ABA and stimulators of guanylate cyclase, cold damage during germination. On the procedure: Corn seed (Hughes 5813) was treated with sodium ABA salt as described under Example 3. ABA rates of 0 and 20 ug/seed were applied either alone or with compounds that are selective and potent activators of soluble guanylate cyclase in animal and plant cells. These agent are YC-1 (3-(5′-hydroxymethyl-2′-furyl)-1-benzylindazole) and BAY 41-2272 (5-cyclopropyl-2-[1-(2-fluoro-benzyl)-1H-pyrazolo[3,4-b]pyridine-3-yl]pyrimidin-4-ylamine).

Assay [1] deals with Corn seed (Hughes 1883). Nature of the assay: Soil test, chilling at spiking (chilling at point of initial emergence). The note with it: for Strong seedlings (%) / Viable seedlings (%): soil, 1° C. 4 days applied at initial emergence (spiking). On the procedure:
(§1) Corn seed (Hughes 1883) was treated with ABA ammonium salt as described under Example 2. ABA rates of 0, 5, 10 and 25 g/cwt were applied.
(§2) The seed was planted in plastic boxes containing lkg of typical agricultural silt loam. Fifty seeds were planted 3 cm deep in each plastic box, and the soil in the box was adjusted to 23% soil moisture (wet-weight basis). Two replications of the experiment were performed. Two kinds of cold tolerance assays were conducted, “standard delayed chilling” and “chilling at spiking.” The boxes for the standard delayed chilling were […] and transferred to 1° C. for four days. Boxes for the “chilling at spiking” treatment were allowed to germinate at 25° C. until the coleoptiles were first observed emerging from the soil. This common point of development varied from 3 to 6 days depending upon the dose of ABA. Then these boxes too were transferred to the 1° C. chamber for four days.
(§3) After the cold treatment the boxes were moved to the 25° C. chamber for one week. The soil was washed from the seedlings and each seedling scored for damage as described under Example 2. “Viable seedlings” were seedlings capable of surviving under typical field conditions.

Assay [2] concerns Corn ("Hughes High" variety) seedlings. As to the kind of experiment: Dip treatment of 2-day old corn seedlings, cold damage after 0° C. for 4 days (rolled towels). The note with it: for Adventitious root growth (%) / Destroyed roots (%) / Lethal shoot (%): ~30 s, 0° C. 4 days, scored 3 days later. The protocol: Corn (“Hughes High” variety) was germinated in the dark in moist rolled towels at 25° C. for 2 days. Seedlings were selected that were undamaged, with a radicle of 1-2 cm and a coleoptile of 0.5 to 1 cm in length. Solutions in water with 5% ethanol were made with different concentrations of ABA and PBI-429. The seedlings were dipped in the solutions with gentle agitation for approximately 30 seconds and drained. The seedlings were placed on moist towels, gently rolled and held at 18° C. for 16 hours. Then the rolled towels were packed in ice for four days. After the chilling period, the rolled towels were blotted to remove excess water and transferred to a 25° C. chamber. Seedling damage was scored 3 days later. Lethal injury of the shoot consisted of either destruction of the mesocotyl or splitting or reduction of the coleoptile judged sufficient to prevent emergence of seedlings in the field (although this trial was conducted in towels). Seedlings with destroyed roots had no living primary or seminal roots. Seedlings with adventitious root growth from the mesocotyl were counted.

Assay [3] deals with Corn seed (Hughes 1883). Nature of the assay: Soil test, standard delayed chilling (severe chilling after 2 days germination). The note with it: for Strong seedlings (%) / Viable seedlings (%): soil, 2 days germination, then 1° C. 4 days. The protocol:
as §1, §2, §3

For assay [4], the system named is "Hughes High" hybrid corn seed. As to the kind of experiment: Seed treatment with ABA, cold damage (ice, 4 days) during germination in moist towels. Conditions: 48 h at 25° C., then ice 4 days. On the procedure:
ABA was applied to corn seed at 0, 1, 5, 25 and 125 g/cwt (seed weight basis). The ABA was first converted to the sodium salt to render it soluble before making up the experimental seed treatment slurries. The treatments were made up in 3 ml samples of an aqueous slurry. All of the seed treatment slurry samples contained CF-Clear film-forming agent and Colorcoat Red (Becker Underwood), each at loz/cwt, and 0.167 oz/cwt Maxim XL fungicide (Syngenta). The slurry application volume was 20 oz/cwt (cwt=100 lbs of seed). One hundred gram samples of “Hughes High” hybrid corn seed were treated with the experimental slurries using a Hege 11 seed treater with a six-inch bowl.
Three replications of 50 seeds each were planted were planted in moist towels and germinated in the dark at 25° C. for 48 hours. The rolled towels were then packed in ice for 4 days. After the cold period the towels were blotted and germination continued until the seedlings were large enough so that each seedling could be scored. In the case of the 125 g rate, this took 2 weeks. Seedling organs were scored independently for damage to the primary root, seminal roots, mesocotyl, coleoptile and the scutellar node.

The mark [5] stands for this setting: ABA (sodium salt) 20 μg/seed alone, sGC activator 0 μg/seed.
Where [6] appears, read: ABA ammonium salt seed treatment 5 g/cwt.
[7] abbreviates: ABA ammonium salt seed treatment 10 g/cwt.
The mark [8] stands for this setting: ABA ammonium salt seed treatment 25 g/cwt.
[9] abbreviates: ABA (sodium salt) seed treatment 1 g/cwt.
The mark [10] stands for this setting: ABA (sodium salt) seed treatment 5 g/cwt.
Setting [11] is: ABA (sodium salt) seed treatment 25 g/cwt.
The mark [12] stands for this setting: ABA (sodium salt) seed treatment 125 g/cwt.
[13] abbreviates: Bay 41-2272 1 μg/seed, ABA 0 μg/seed.
[14] abbreviates: Bay 41-2272 10 μg/seed, ABA 0 μg/seed.

On to S-(+)-abscisic acid [ABA], for which, in the assay with Corn seed (Hughes 5813) (setting [5]), the “Percent Strong Seedlings” value was 67%. Further, the “Percent Viable Seedlings” value in the assay on Corn seed (Hughes 5813) (setting [5]) came to 100%. The “Strong seedlings (%)” value with Corn seed (Hughes 1883) [1] (setting [6]) was 0%; in the assay on Corn seed (Hughes 1883) [1] (setting [7]) it was 18%; in the assay with Corn seed (Hughes 1883) [1] (setting [8]) it was 10%; in the assay with Corn seed (Hughes 1883) [3] (setting [6]), 53%; in the assay with Corn seed (Hughes 1883) [3] (setting [7]), 96%; in the assay on Corn seed (Hughes 1883) [3] (setting [8]), 100%. Besides, the “Strong seedlings (%)” value in assay [4] (setting [9]) amounted to 18.0%; in assay [4] (setting [10]), 88.7%; in assay [4] (setting [11]) it was 95.3%; in assay [4] (setting [12]), 81.3%. Also, the “Viable seedlings (%)” value with Corn seed (Hughes 1883) [1] (setting [6]) is 5%; with Corn seed (Hughes 1883) [1] (setting [7]), 62%; with Corn seed (Hughes 1883) [1] (setting [8]), 23%; in the assay on Corn seed (Hughes 1883) [3] (setting [6]), 99.5%; in the assay with Corn seed (Hughes 1883) [3] (setting [7]), 99.5%; in the assay on Corn seed (Hughes 1883) [3] (setting [8]), 100%. Further, the “Protection of seedlings from cold damage (in words)” value with Corn seed (Hughes 1883) [1] (seed treatment, chilling at spiking) is “results not only from delay of germination, but from induction of cold tolerance in the tissue”. Moreover, the “Adventitious root growth (%)” value in assay [2] (ABA dip 10 ppm) was 7%; in assay [2] (ABA dip 100 ppm) it was 20%; in assay [2] (ABA dip 1000 ppm), 89%. The “Destroyed roots (%)” value in assay [2] (ABA dip 10 ppm) is 86%; in assay [2] (ABA dip 100 ppm), 84%; in assay [2] (ABA dip 1000 ppm), 48%. For the same molecule, the “Lethal shoot (%)” value worked out at 62% in assay [2] (ABA dip 10 ppm), 47% in assay [2] (ABA dip 100 ppm) and 11% in assay [2] (ABA dip 1000 ppm). Besides, in assay [2] (applied to the seedling prior to cold stress), the “Protection of seedlings from cold injury (in words)” value was “can provide protection from injury, and stimulate adventitious root growth”. The “Protection from cold in field soil (in words)” value in the assay on Corn seed (Hughes 1883) [3] (delivered as a seed treatment) is “protection of germinating seeds and young seedlings in field soil”. Moreover, the “Seedlings with lethal root injury (%)” value in assay [4] (setting [9]) was 23.3%; in assay [4] (setting [10]), 0.7%; in assay [4] (setting [11]), 0.0%; in assay [4] (setting [12]) it was 0.7%. Further, the “Seedlings with lethal shoot injury (%)” value came to 19.3% in assay [4] (setting [9]), 8.0% in assay [4] (setting [10]), 15.5% in assay [4] (setting [11]) and 11.4% in assay [4] (setting [12]).

Regarding `OCc1ccc(-c2nn(Cc3ccccc3)c3ccccc23)o1` [YC-1, 3-(5′-hydroxymethyl-2′-furyl)-1-benzylindazole], in the assay with Corn seed (Hughes 5813) (YC-1 1 μg/seed, ABA 0 μg/seed), the “Percent Strong Seedlings” value turned out to be 0% and the “Percent Viable Seedlings” value is recorded as 44%. In the assay with Corn seed (Hughes 5813) (YC-1 10 μg/seed, ABA 0 μg/seed), the “Percent Strong Seedlings” value came out at 4% and the “Percent Viable Seedlings” value was found to be 46%.

Take `Nc1nc(-c2nn(Cc3ccccc3F)c3ncccc23)ncc1C1CC1` [Bay 41-2272, 5-cyclopropyl-2-[1-(2-fluoro-benzyl)-1H-pyrazolo[3,4-b]pyridine-3-yl]pyrimidin-4-ylamine]: in the assay with Corn seed (Hughes 5813) (setting [13]), the “Percent Strong Seedlings” value is on record as 1% and the “Percent Viable Seedlings” value is listed as 65%. Moreover, in the assay with Corn seed (Hughes 5813) (setting [14]), the “Percent Strong Seedlings” value worked out at 0% and the “Percent Viable Seedlings” value was 64%.
